Test results from patent US5252495A, “Immunoassay for physostigmine” (priority 1992, dated 1993).
Where two headings read alike, the source gives them in different places.

What was measured:
[1] = cited from earlier work
[2] = Stability of physostigmine in rat plasma; assay type: in vitro ADME; conditions: for Amount Recovered: rat plasma
Protocol: To show the stability of physostigmine in biological fluids, physostigmine was added to 2 portions of rat plasma. One half of the plasma was kept at room temperature and the other was kept at 4° C. Aliquots which originally contained 3.6 ng of physostigmine were assayed at various times. […] Since the samples were cooled and processed at 4° C., corrections for loss of physostigmine were unnecessary.

[3] = Physostigmine pharmacokinetics and tissue concentrations in rats after intramuscular administration; assay type: in vivo, Male Sprague-Dawley rats; conditions: 0.3 mg/kg intramuscular; for concentration at 0.5 h: 30 min; for concentration at 0.75 h: 45 min; for concentration at 1 h: 60 min; for concentration at 1.5 h: 90 min; for concentration at 2 h: 120 min
Protocol: To study the pharmakinetics of physostigmine and validate the RIA and the antibody specificity of the present invention, rat studies were conducted. Male Sprague-Dawley rats weighing approximately 500 grams were housed two per cage at 23° C. with a twelve hour on-off light cycle. The animals were given food and water ad libitum. After sixty days, food was withheld for twelve hours. Physostigmine, comprised of a physostigmine base dissolved in a small volume of dilute hydrochloric acid and then diluted with phosphate buffered saline, with the pH of the solution adjusted to 6.0 was administered (0.3 mg. of the physostigmine solution/Kg) intramuscularly to the rats. Groups of three animals were sacrificed by using inhalation anesthetic, Fluothane (0.01% thymol, w/w; and 0.00025% ammonia, w/w) Ayerst Laboratories, New York, […] Blood, collected via heart puncture, and tissue samples were taken. Brain, fat, heart, muscle and spleen were removed and frozen on dry ice immediately. On the date of analysis the plasma and tissue samples were thawed. The tissues were weighed and homogenized with an equal volume of cold solution of 10 mM EDTA, 150 mM NaCl and 0.5% triton X-100, pH 7.4. The suspension Was centrifuged at 15,000×g in a Sorvall RC-5B centrifuge (Dupont) for 30 min at 4° C. The supernatent was collected and the pellet was Washed and centrifuged. The supernatants were combined and filtered through 1 um pore size filters (RC 60, 9 mm diameter from Schleicher and Schuell Inc., Keene, N.H.) and 100 ul of the filtrate was injected into the HPLC column.
The blood and tissue samples were used to determine the concentration of physostigmine as a function of time. FIG. 3 gives the physostigmine level in the plasma of three male rats for each time interval as determined by the RIA of the present invention, while Table 4 presents the concentration of physostigmine in various organs as a function of time.

[4] = rat, brain, im, read-out: Tissue concentration of physostigmine, Brain
[5] = rat, fat, im, read-out: Tissue concentration of physostigmine, Fat
[6] = rat, heart, im, read-out: Tissue concentration of physostigmine, Heart
[7] = rat, muscle, im, read-out: Tissue concentration of physostigmine, Muscle
[8] = rat, spleen, im, read-out: Tissue concentration of physostigmine, Spleen

## CNC(=O)Oc1ccc2c(c1)[C@]1(C)CCN(C)[C@@H]1N2C [Physostigmine, physostigmine]
[1]
  lipid solubility: high degree of lipid solubility
  solubility in biological fluids: soluble in biological fluids
[2]; 4° C., 0 min, originally 3.6 ng
  Amount Recovered: 3.6 ng
[2]; 4° C., 15 min
  Amount Recovered: 3.4 ng
[2]; 4° C., 30 min
  Amount Recovered: 3.6 ng
[2]; 4° C., 1 hr
  Amount Recovered: 3.8 ng
[2]; 4° C., 2 hr
  Amount Recovered: 3.6 ng
[2]; 4° C., 3 hr
  Amount Recovered: 3.6 ng
[2]; 4° C., 4 hr
  Amount Recovered: 3.6 ng
[2]; 23° C., 0 min, originally 3.6 ng
  Amount Recovered: 3.6 ng
[2]; 23° C., 15 min
  Amount Recovered: 3.3 ng
[2]; 23° C., 30 min
  Amount Recovered: 3.1 ng
[2]; 23° C., 1 hr
  Amount Recovered: 2.7 ng
[2]; 23° C., 2 hr
  Amount Recovered: 2.8 ng
[2]; 23° C., 3 hr
  Amount Recovered: 2.8 ng
[2]; 23° C., 4 hr
  Amount Recovered: 2.8 ng
[2]; rat, plasma, kept at 4° C. for 3 hr, read-out: physostigmine recovered from plasma samples
  remaining at 3 h: > 95%
[2]; rat, plasma, processed within 15 min. at room temperature, read-out: physostigmine recovered from plasma samples
  remaining at 0.25 h: > 95%
[3]; 180 min
  Tissue concentration of physostigmine, Brain: 0.00 ng/g
[3]; im, rat, spleen, read-out: time during which spleen levels continued to increase (converted)
  Tmax: 20 min
[3]; rat
  estimated plasma half-life during the rapid decline phase: approximately 15 min
  time until present in all of the tissues studied: ≤ 2.5 min
  tissue distribution: rapidly distributed to central as well as peripheral tissues
  tissues with highest tissue concentrations: heart and spleen
[3]; [4]
  concentration at 2.5 min: 331 ng/g
  concentration at 5 min: 297 ng/g
  concentration at 10 min: 292 ng/g
  concentration at 20 min: 198 ng/g
  concentration at 0.5 h: 173 ng/g
  concentration at 0.75 h: 45.6 ng/g
  concentration at 1 h: 15.7 ng/g
  concentration at 1.5 h: 3.05 ng/g
  concentration at 2 h: 0.53 ng/g
[3]; [5]
  concentration at 2.5 min: 230 ng/g
  concentration at 5 min: 533 ng/g
  concentration at 10 min: 398 ng/g
  concentration at 20 min: 360 ng/g
  concentration at 0.5 h: 292 ng/g
  concentration at 0.75 h: 95 ng/g
  concentration at 1 h: 86.3 ng/g
  concentration at 1.5 h: 80.5 ng/g
  concentration at 2 h: 58.6 ng/g
[3]; rat, fat, im, 180 min, read-out: Tissue concentration of physostigmine, Fat
  concentration at 3 h: 10.3 ng/g
[3]; [6]
  concentration at 2.5 min: 332 ng/g
  concentration at 5 min: 785 ng/g
  concentration at 20 min: 371 ng/g
  concentration at 0.5 h: 213 ng/g
  concentration at 0.75 h: 79.2 ng/g
  concentration at 1 h: 78.5 ng/g
  concentration at 1.5 h: 66.9 ng/g
  concentration at 2 h: 47.2 ng/g
[3]; rat, heart, im, 180 min, read-out: Tissue concentration of physostigmine, Heart
  concentration at 3 h: 48.7 ng/g
[3]; [7]
  concentration at 2.5 min: 321 ng/g
  concentration at 5 min: 225 ng/g
  concentration at 10 min: 540 ng/g
  concentration at 20 min: 323 ng/g
  concentration at 0.5 h: 243 ng/g
  concentration at 0.75 h: 241 ng/g
  concentration at 1 h: 86 ng/g
  concentration at 1.5 h: 70 ng/g
  concentration at 2 h: 35 ng/g
[3]; rat, muscle, im, 180 min, read-out: Tissue concentration of physostigmine, Muscle
  concentration at 3 h: 37.5 ng/g
[3]; [8]
  concentration at 2.5 min: 322 ng/g
  concentration at 5 min: 627 ng/g
  concentration at 10 min: 955 ng/g
  concentration at 20 min: 986 ng/g
  concentration at 0.5 h: 912 ng/g
  concentration at 0.75 h: 835 ng/g
  concentration at 1 h: 540 ng/g
  concentration at 1.5 h: 358 ng/g
  concentration at 2 h: 227 ng/g
[3]; rat, spleen, im, 180 min, read-out: Tissue concentration of physostigmine, Spleen
  concentration at 3 h: 55.6 ng/g
